Patent US20250340565A1, “CD73 INHIBITOR COMPOUNDS” (AdoRx Therapeutics Limited, priority 2022, published 2025)

Experiments:
[1] = target: CD73 in whole blood (Homo sapiens (Human), UniProt P21589); test: Whole blood AMP Glo assay; type: cell-based; settings: whole blood of healthy volunteers, 10 μM AMP, 30 min pre-incubation, 15 min at 37° C., levamisole 1.5 mM
Experimental: Blood is drawn from healthy volunteers by venepuncture and anti-coagulated with Lithium Heparin (10 IU/mi). 150 μl of blood is added to U-bottom polypropylene 96-well assay plates pre-filled with 20 μl of compound dilutions prepared in RPMI also containing the Tissue Non-specific Alkaline Phosphatase inhibitor Levamisole (final assay concentration 1.5 mM). Control wells to define uninhibited CD73 contain DMSO in place of compound. Control wells to define complete stabilization of AMP attributable to CD73 contain LY3475070 (CAS: 2375815-63-5) at 30 μM final assay concentration.
Compounds are pre-incubated with whole blood at 37° C. for 30 minutes. Following this, AMP is added in a 30 μl volume for a final assay concentration of 10 μM, mixed, and the plates are incubated for 15 minutes at 37° C. Final DMSO concentration/well is 0.6% and final volume/well is 200 μL. After incubating with AMP, the plates are placed on ice and then centrifuged at 2000 g for 10 minutes at 4° C. Plasma is removed and then diluted 1:10 with pre-chilled HBSS (Ca2+& Mg2+free) and kept on ice.
The stabilized AMP concentration in diluted plasma is measured using AMP-Glo kit (Promega), in parallel with a standard curve of known AMP concentrations, with a final volume of 40 μl in white flat bottom half-well 96-well plates (Corning). Signal is measured by Luminescence. The IC50 values of test compounds are determined as the inflection point of the sigmoidal concentration response curve.

[2] = target: CD73 activity in U138-MG cells (Homo sapiens (Human), UniProt P21589); test: U138-MG inhibition assay (inorganic phosphate from AMP, PiColorLock Gold); type: cell-based; settings: 100 μM AMP, 30 min pre-incubation, 1 hour at 37° C.
CD73 activity in U138-MG cells, sequence (P21589 27-574): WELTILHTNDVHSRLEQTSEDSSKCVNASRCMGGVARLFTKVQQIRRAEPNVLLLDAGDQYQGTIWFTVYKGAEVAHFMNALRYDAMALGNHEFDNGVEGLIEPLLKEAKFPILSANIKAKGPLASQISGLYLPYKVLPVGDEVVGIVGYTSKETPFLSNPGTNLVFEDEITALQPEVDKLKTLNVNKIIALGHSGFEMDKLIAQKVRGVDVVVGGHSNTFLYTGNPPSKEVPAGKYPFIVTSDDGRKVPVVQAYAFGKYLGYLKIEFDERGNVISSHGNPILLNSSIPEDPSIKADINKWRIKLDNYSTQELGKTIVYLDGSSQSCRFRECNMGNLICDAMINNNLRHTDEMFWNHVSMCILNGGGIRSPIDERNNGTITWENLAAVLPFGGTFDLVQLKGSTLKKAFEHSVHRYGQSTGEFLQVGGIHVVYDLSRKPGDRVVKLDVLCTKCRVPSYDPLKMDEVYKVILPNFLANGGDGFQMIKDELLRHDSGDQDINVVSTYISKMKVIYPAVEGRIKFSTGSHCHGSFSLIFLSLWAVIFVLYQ
Experimental: U138-MG cells from ATCC are cultured in DMEM (Gibco 31966) with 10% FBS. Cells are seeded into 96-well culture plates (5,000 cell/well) in 100 μL of media for 24 hr. Cells are washed twice with 200 μL of assay buffer (20 mM HEPES, pH 7.4; 137 mM NaCl; 5.4 mM KCl; 1.3 mM CaCl2; 4.2 mM NaHCO3; 1 mg/mL glucose) to remove residual inorganic phosphate. CD73 inhibitor is added to each well in 100 μl volume and preincubated for 30 mins at 37° C. An equal volume of AMP substrate (Sigma A1572) is added to each well at a final concentration of 100 μM and incubated at 37° C. for 1 hour. Control wells containing cells but lacking added AMP, define the assay signal equivalent to 100% inhibition of CD73 activity. Supernatant is removed for measurement of inorganic phosphate using the PiColorLock Gold kit (Abcam, ab 270004).
The IC50 values of test compounds are determined as the inflection point of the sigmoidal concentration response curve.

[3] = target: human (h)CD73 (amino acids Trp27-Lys547) (Homo sapiens, UniProt P21589); test: CD73 inhibition assay (Malachite Green phosphate detection); type: biochemical; settings: 250 pM hCD73, 12.5 μM AMP, 20 min pre-incubation, absorbance 620 nm
Experimental: Compound inhibition of human (h)CD73 (amino acids Trp27-Lys547, R&D Systems 5795-EN-500) enzymatic activity was tested via the Malachite Green Phosphate Detection Kit (R&D DY996). Experiments were performed in 20 μL Tris buffer (25 mM Tris pH 7.5, 5 mM MgCl2, 0.002% Tween20), with 250 pM of hCD73. Test compounds of interest were prepared in a threefold serial dilution in DMSO and added to the assay to give the appropriate final concentration, with the assay DMSO concentration being 1%. Compounds were pre-incubated for 20 minutes with hCD73 in a 384 well clear plate (Greiner 781101), followed by the addition of adenosine monophosphate (AMP) to 12.5 μM. The enzymatic reaction was carried out for 20 min at room temperature. 5 μL of Malachite kit reagent A was added to stop the reaction (contains 3M H2SO4) and after 10 min, 5 μL of Malachite kit reagent B was added (Malachite Green). After 30 min, absorbance at 620 nm was read on a BMG Pherastar FSX.
Data were normalised to measurements in the absence of competing compound (0% inhibition) and in the presence of 10 μM control compound (100% inhibition).

CD73 in whole blood, sequence (P21589 27-574): as above

Row | Structure (SMILES) | IC50 [1] [nM] | IC50 [2] [nM] | IC50 [3] [nM]
1 | CC1(C)CN(c2ccnc3sc(-c4c[nH]c(=O)[nH]c4=O)cc23)CC1(F)F [Example 14.1, 5-[4-(3,3-Difluoro-4,4-dimethyl-pyrrolidin-1-yl)thieno[2,3-b]pyridin-2-yl]-1H-pyrimidine-2,4-dione] |  | 1320 | 256
2 | CC(C)NC(=O)OCC(F)(F)CNc1ncnc2oc(-c3c[nH]c(=O)[nH]c3=O)cc12 [Example 20, [3-[[6-(2,4-Dioxo-1H-pyrimidin-5-yl)furo[2,3-d]pyrimidin-4-yl]amino]-2,2-difluoro-propyl]N-isopropylcarbamate] |  | 744 | 834
3 | CC1(C)CN(c2ncnc3nc(-c4c[nH]c(=O)[nH]c4=O)sc23)CC1(F)F [Example 6.1, 5-[7-(3,3-difluoro-4,4-dimethyl-pyrrolidin-1-yl)thiazolo[4,5-d]pyrimidin-2-yl]-1H-pyrimidine-2,4-dione] |  | 66 | 94
4 | O=c1[nH]cc(-n2cc3c(N4C[C@@H]5COC[C@H]5C4)ncnc3n2)c(=O)[nH]1 [Example 13.10, 5-[4-[(3aR,6aR)-1,3,3a,4,6,6a-Hexahydrofuro[3,4-c]pyrrol-5-yl]pyrazolo[3,4-d]pyrimidin-2-yl]-5H-pyrimidine-2,4-dione] |  | 2500 | 
5 | O=c1[nH]cc(-c2cc3c(N4CCC(OCCN5CCCCC5)C4)nccc3s2)c(=O)[nH]1 (centres unmarked) [Example 9, 5-[4-[3-[2-(1-Piperidyl)ethoxy]pyrrolidin-1-yl]thieno[3,2-c]pyridin-2-yl]-1H-pyrimidine-2,4-dione] |  |  | 283
6 | O=c1[nH]cc(-c2cc3c(NCc4ccc(Cl)cc4)ncnc3o2)c(=O)[nH]1 [Example 19.2, 5-[4-[(4-Chlorophenyl)methylamino]furo[2,3-d]pyrimidin-6-yl]-1H-pyrimidine-2,4-dione] |  |  | 9730
7 | CC(C)NC(=O)OC1CN(c2ncnc3oc(-c4c[nH]c(=O)[nH]c4=O)cc23)CC1(F)F (centres unmarked) [Example 22.2, [1-[6-(2,4-Dioxo-1H-pyrimidin-5-yl)furo[2,3-d]pyrimidin-4-yl]-4,4-difluoro-pyrrolidin-3-yl]N-isopropylcarbamate] |  | 54.9 | 170
8 | CC1(C)CN(c2ncnc3sc(-c4c[nH]c(=O)[nH]c4=O)cc23)C1 [Example 1.2, 5-[4-(3,3-Dimethylazetidin-1-yl)thieno[2,3-d]pyrimidin-6-yl]-1H-pyrimidine-2,4-dione] |  | 1010 | 428
9 | O=c1[nH]cc(-c2cc3c(N4CCC(OCc5ccccc5)C4)ncnc3s2)c(=O)[nH]1 (centres unmarked) [Example 4.2, 5-[4-(3-Benzyloxypyrrolidin-1-yl)thieno[2,3-d]pyrimidin-6-yl]-1H-pyrimidine-2,4-dione] |  | 3140 | 197

Next, values leading:

Row | IC50 [1] [nM] | IC50 [2] [nM] | IC50 [3] [nM] | Structure (SMILES)
10 | 20 | 7 |  | COC1CN(c2ncc(Cl)n3nc(-c4c[nH]c(=O)[nH]c4=O)cc23)CC1(F)F (centres unmarked) [Example 25.14, 5-[7-Chloro-4-(3,3-difluoro-4-methoxy-pyrrolidin-1-yl)pyrazolo[1,5-a]pyrazin-2-yl]-1H-pyrimidine-2,4-dione]
11 | 56 | 5 |  | CC1(C)CN(c2ncc(F)n3nc(-c4c[nH]c(=O)[nH]c4=O)cc23)CC1(F)F [Example 25.10, 5-[4-(3,3-difluoro-4,4-dimethyl-pyrrolidin-1-yl)-7-fluoro-pyrazolo[1,5-a]pyrazin-2-yl]-1H-pyrimidine-2,4-dione]
12 | 200 | 23 |  | Cc1cnc(N2CC(C)(C)C(F)(F)C2)c2cc(-c3c[nH]c(=O)[nH]c3=O)nn12 [Example 25.11, 5-[4-(3,3-difluoro-4,4-dimethyl-pyrrolidin-1-yl)-7-methyl-pyrazolo[1,5-a]pyrazin-2-yl]-1H-pyrimidine-2,4-dione]
13 |  | 170 | 71.9 | O=c1[nH]cc(-c2cc3c(N4CC(O)C(F)(F)C4)nccn3n2)c(=O)[nH]1 (centres unmarked) [Example 25.5, 5-[4-(3,3-difluoro-4-hydroxy-pyrrolidin-1-yl)pyrazolo[1,5-a]pyrazin-2-yl]-1H-pyrimidine-2,4-dione]
14 |  | 58.8 | 83.7 | O=c1[nH]cc(-c2cc3c(N4CC(F)(F)C5(CC5)C4)nccn3n2)c(=O)[nH]1 [Example 25.2, 5-[4-(7,7-Difluoro-5-azaspiro[2.4]heptan-5-yl)pyrazolo[1,5-a]pyrazin-2-yl]-1H-pyrimidine-2,4-dione]
15 |  | 16 | 35.1 | O=c1[nH]cc(-n2cc3c(N4CC(O)C(F)(F)C4)ncc(F)c3n2)c(=O)[nH]1 (centres unmarked) [Example 26.3, 5-[4-(3,3-difluoro-4-hydroxy-pyrrolidin-1-yl)-7-fluoro-pyrazolo[4,3-c]pyridin-2-yl]-1H-pyrimidine-2,4-dione]
16 |  | 38 |  | CC1(C)CN(c2ncc(I)n3nc(-c4c[nH]c(=O)[nH]c4=O)cc23)CC1(F)F [Example 25.12, 5-[4-(3,3-difluoro-4,4-dimethyl-pyrrolidin-1-yl)-7-iodo-pyrazolo[1,5-a]pyrazin-2-yl]-1H-pyrimidine-2,4-dione]
17 |  | 18 |  | Cc1nc(N2CC(C)(C)C(F)(F)C2)c2cc(-c3c[nH]c(=O)[nH]c3=O)nn2c1Cl [Example 25.15, 5-[7-Chloro-4-(3,3-difluoro-4,4-dimethyl-pyrrolidin-1-yl)-6-methyl-pyrazolo[1,5-a]pyrazin-2-yl]-1H-pyrimidine-2,4-dione]
18 |  | 46 | 99 | CN1CCOC(COC2CN(c3nccn4nc(-c5c[nH]c(=O)[nH]c5=O)cc34)CC2(F)F)C1 (centres unmarked) [Example 25.6, 5-[4-[3,3-difluoro-4-[(4-methylmorpholin-2-yl)methoxy]pyrrolidin-1-yl]pyrazolo[1,5-a]pyrazin-2-yl]-1H-pyrimidine-2,4-dione]
19 |  | 91 | 54.7 | COC1CN(c2nccn3nc(-c4c[nH]c(=O)[nH]c4=O)cc23)CC1(F)F (centres unmarked) [Example 25.3, 5-[4-(3,3-difluoro-4-methoxy-pyrrolidin-1-yl)pyrazolo[1,5-a]pyrazin-2-yl]-1H-pyrimidine-2,4-dione]
20 |  | 65 | 132 | O=c1[nH]cc(-c2cc3c(N4CC(OCCN5CCOCC5)C(F)(F)C4)nccn3n2)c(=O)[nH]1 (centres unmarked) [Example 25.7, 5-[4-[3,3-difluoro-4-(2-morpholinoethoxy)pyrrolidin-1-yl]pyrazolo[1,5-a]pyrazin-2-yl]-1H-pyrimidine-2,4-dione]
21 |  | 12 | 43.3 | COC1CN(c2ncc(F)c3nn(-c4c[nH]c(=O)[nH]c4=O)cc23)CC1(F)F (centres unmarked) [Example 26.2, 5-[4-(3,3-difluoro-4-methoxy-pyrrolidin-1-yl)-7-fluoro-pyrazolo[4,3-c]pyridin-2-yl]-1H-pyrimidine-2,4-dione]
22 |  | 11 | 59 | CN1CCOC(COC2CN(c3ncc(F)c4nn(-c5c[nH]c(=O)[nH]c5=O)cc34)CC2(F)F)C1 (centres unmarked) [Example 26.6, 5-[4-[3,3-difluoro-4-[(4-methylmorpholin-2-yl)methoxy]pyrrolidin-1-yl]-7-fluoro-pyrazolo[4,3-c]pyridin-2-yl]-1H-pyrimidine-2,4-dione]
23 |  | 115 | 141 | O=c1[nH]cc(-c2cc3c(N4CCC5(COC5)C4)nccn3n2)c(=O)[nH]1 [Example 25.4, 5-[4-(2-oxa-7-azaspiro[3.4]octan-7-yl)pyrazolo[1,5-a]pyrazin-2-yl]-1H-pyrimidine-2,4-dione]
